Experiment [1] addresses alpha5beta1 (Homo sapiens (Human), UniProt P05556+P08648). The experiment can be described thus: Cell adhesion assay with HEK293. It counts as cell-based. The conditions noted are these: HEK293 cells, fibronectin-coated plates, 1 h at 37° C., 2 mM MgCl2. The protocol: Cryopreservated cells were thawed and grown for 72 h in DMEM medium with 10% FCS, 2 mM glutamine, 100 U/ml penicillin and 100 μg/ml streptomycin before use.
Cells were detached with cell dissociation solution (Sigma) and suspended in growth medium, centrifuged and resuspended in buffer A (150 mM NaCl, 25 mM HEPES, 2 mM EDTA, pH 7.4). Cells were incubated for 30 min at 37° C. in a 5% CO2. Subsequently, cells were washed with pre-warmed buffer B (150 mM NaCl, 25 mM HEPES pH 7.4) and resuspended in buffer B. 96-well Maxisorp-plate were coated with 0.01% poly-L-lysine, 10 μg/ml fibronectin (Chemicon; #F1904) in carbonate buffer or carbonate buffer alone (15 mM Na2CO3, 35 mM NaHCO3, pH 9.6) for 1 h at RT. Plates were washed and blocked with 1% BSA for 30 min at RT. Cells were preincubated with test compound and adjusted DMSO concentrations for 10 min at RT. 7×10^4 cells per well were plated in triplicate and allowed to attach for 1 h at 37° C. in the presence of 2 mM MgCl2. Cells were washed with PBS and adherent cells were fixed with 5% glutaraldehyde for 30 min.
Cells were subsequently washed and stained with 0.1% Crystal Violet for 1 hr at 37° C. Plates were washed and incorporated dye was solubilized with 10% acetic acid. Absorbance was measured at 570 nm using a Spectramax Plus 384 microtiter plate reader and analyzed with SoftMaxPro (Molecular Devices). Minimal binding on BSA was subtracted. IC50 values were determined using XL-FIT.

The target in experiment [2] is integrin alpha5beta1 extracellular domain Fc-fusion (Homo sapiens (Human), UniProt P05556+P08648). In words: alpha5beta1-Fibronectin binding assay (competitive ELISA). The conditions noted are these: inhibition of integrin binding to coated fibronectin. How it is done: (§1) The optimal concentrations of integrin and ligand were selected from ELISA binding studies with variable concentrations of both to obtain optimal signal noise ratio for further studies. IC50 studies were performed with fixed concentration of ligand and integrin and a serial dilution of inhibitor. The plates were measured with SpectraMax Plus reader (Molecular Devices). The resulting inhibition curves were analyzed using SoftMaxPro 4.0 software, the turning point describes the IC50 value.
(§2) Fibronectin was purchased from Sigma and fibrinogen from Calbiochem. (EMD Biosciences, Darmstadt, Germany). The integrin alpha5beta1 extracellular domain Fc-fusion was expressed and purified as described (Coe, 2001, J. Biol. Chem., 276, 35854). Integrin alphaIIbbeta3 was purchased form Kordia (Kordia Life Science, Leiden, Netherlands)
Fibronectin was diluted with coating buffer (15 mM Na2CO3, 35 mM NaHCO3, pH 9.6) and coated with 100 μL/well to Nunc-Immuno maxisorp plates (Nalge Nunc Europe Ltd) over night at 4° C. After discarding the coating solution plates were washed 3 times with buffer 1 (25 mM Tris, pH 7.6, 150 mM NaCl, 1 mM MnCl2, 1 mg/ml BSA) and blocked with 100 μL blocking buffer (3% BSA in PBS 0.1% Tween20) for 1 hour at room temperature. After washing the blocked plates (3 times) with buffer 1, integrin (50 μL) and either inhibitor (serial dilution in buffer 1) or buffer 1 (50 μL) were added to the wells and incubated for one hour at RT. Plates were then washed (3 times) with buffer 1 and incubated with 100 μL of anti-human-Fc-HRP antibody conjugate (Sigma-Aldrich, Taufkirchen, Germany) in buffer 1 for 1 hour at RT. After additional washing steps (3 times) with buffer 150 μL of HRP substrate solution TMB (Seramun, Germany) were added to the wells. Color development was stopped after 3-5 minutes with 50 μL 1 M H2SO4. The developed color was measured at 450 nm and analyzed as described above.
In general terms: ELISA stands for enzyme-linked immunosorbent assay.

For experiment [3], the target named is Integrin alphaIIbbeta3 (Homo sapiens (Human), UniProt P05106+P08514). The experiment can be described thus: alphaIIbbeta3-Fibrinogen binding assay (competitive ELISA). The conditions noted are these: inhibition of integrin binding to coated fibrinogen; read-out: IC50 alphabIIbbeta3. How it is done:
as §1, §2
Fibrinogen was diluted with coating buffer (15 mM Na2CO3, 35 mM NaHCO3, pH 9.6) and coated with 100 μL/well to Nunc-Immuno maxisorp plates over night at 4° C. After discarding the coating solution plates were washed 3 times with buffer 1 (25 mM Tris, pH 7.6, 150 mM NaCl, 1 mM MnCl2, 1 mg/ml BSA) and blocked with 100 μL blocking buffer (3% BSA in PBS 0.1% Tween20) for 1 hour at room temperature. After washing the blocked plates (3 times) with buffer 1, integrin alphaIIbbeta3 (50 μL) and either inhibitor (serial dilution in buffer 3, 25 mM Tris, pH 7.6, 150 mM NaCl, 1 mM MnCl2, 1 mg/ml BSA 1 mM MgCl2, 1 mM CaCl2,) or buffer 3 (50 μL) were added to the wells and incubated for one hour at RT. Plates were then washed (3 times) with buffer 3 and incubated with 100 μL of anti-alphaIIbbeta3 antibody (anti CD41b, Pharmingen) in buffer 3 for 1 hour at RT. Plates were washed (3 times) with buffer 3 and incubated for 1 hour with 100 μL secondary antibody (anti-mouse-HRP conjugate, Sigma) in buffer 3. After additional washing steps (3 times) with buffer 350 μL of HRP substrate solution TMB (Seramun) were added to the wells. Color development was stopped after 3-5 minutes with 50 μL 1 M H2SO4. The developed color was measured at 450 nm and analyzed as described above.

Experiment [4] relates to HUVEC. The experiment can be described thus: Migration assay with HUVEC. It counts as cell-based. The conditions noted are these: Homo sapiens, transwell coated with chymotryptic fibronectin fragment, 10 ng/ml bFGF chemoattractant, 3 h. How it is done:
Migration assays are carried out using modified Boyden chambers consisting of Fluoroblock Transwell membrane filter (8 μm pores) in 24 well companion tissue plates (BD). Three wells per group are used.
The underfaces of the transwell membranes are coated with chymotryptic fibronectin fragment (10 μg/ml; Chemicon) and blocked with 2% BSA for 1 h at room temperature. After rinsing with PBS transwells are placed into companion plates containing 700 μl serumfree medium with indicated compound concentrations and chemoattractant (10 ng/ml bFGF; Promocell).
HUVEC are maintained in standard culture medium (Endothelial Cell Growth Medium; Promocell, containing supplement mix and 2% FCS) in a humified 5% CO2 incubator at 37° C. Cells are grown to 70-90% confluency and are made quiescent in culture medium containing 0.5% FCS, 0.1% BSA, no supplements for 16 h. Medium is removed and serum-free medium (0% FCS; 0.1% BSA, no supplements) is added for 1.5 h. Cells are detached with trypsin and cell suspension is adjusted to 1×10^5/ml. Indicated compound concentrations are added to cells. Cells are preincubated with compounds for 15 min, before seeding of 250 μl of the cell suspensions into the transwells. Cells are allowed to migrate for 3 h in 37° C. incubator with 5% CO2. Then, transwells are transferred to 24 well companion tissue plates containing Calcein AM (4 μM; Molecular Probes) in HBSS and incubated for another 2 h. Plates are read at excitation/emission […] in a fluorescence reader.
Results are expressed as percent of control (cells in serumfree medium without compound and chemoattractant.

pIC50: −log10 of the molar value. Some results are limits rather than exact numbers.

For the compound `Cc1ccnc(NCC2CCN(c3ccc(CC(NC(=O)c4c(C)cc(C)cc4C)C(=O)O)cc3)CC2)c1` (centres unmarked) [Compound 8, 3-(4-(4-((4-methylpyridin-2-ylamino)methyl)piperidin-1-yl)phenyl)-2-(2,4,6-trimethylbenzamido)propanoic acid], the pIC50 in experiment [1] was over 5.70; in experiment [2], over 7.00; in experiment [3] it was under 6.00; in experiment [4] it was over 5.00.

Take `Cc1cc(C)c(C(=O)NC(Cc2ccc(N3CC(CNc4ccccn4)C3)cc2)C(=O)O)c(C)c1` (centres unmarked) [Compound 11, 3-(4-(3-((pyridin-2-ylamino)methyl)azetidin-1-yl)phenyl)-2-(2,4,6-trimethylbenzamido)propanoic acid]: the figures for the pIC50 in experiment [1], in experiment [2] and in experiment [3] were under 4.70, under 7.00 and under 6.00, respectively.

Regarding `Cc1cc(C)c(C(=O)NC(Cc2ccc(N3CCC(CNc4nc5ccccc5[nH]4)CC3)cc2)C(=O)O)c(C)c1` (centres unmarked) [Compound 20, 3-(4-(4-((1H-benzo[d]imidazol-2-ylamino)methyl)piperidin-1-yl)phenyl)-2-(2,4,6-trimethylbenzamido)propanoic acid], the pIC50 in experiment [1] is 4.70 to 5.70; in experiment [2], under 7.00; in experiment [3], under 6.00.

As for `Cc1cc(C)c(C(=O)NC(Cc2ccc(N3CCC(c4ccc5c(n4)NCCC5)CC3)cc2)C(=O)O)c(C)c1` (centres unmarked) [Compound 23, 3-(4-(4-(5,6,7,8-tetrahydro-1,8-naphthyridin-2-yl)piperidin-1-yl)phenyl)-2-(2,4,6-trimethylbenzamido)propanoic acid], the pIC50 in experiment [1] is over 5.70; in experiment [2], over 7.00; in experiment [3] it was under 6.00; in experiment [4] it was over 5.00.

Consider `CC1(C(=O)NC(CC2CCN(C(=O)CCc3ccc4c(n3)NCCC4)CC2)C(=O)O)CCCCC1` (centres unmarked) [Compound 29, 2-(1-methylcyclohexanecarboxamido)-3-(1-(3-(5,6,7,8-tetrahydro-1,8-naphthyridin-2-yl)propanoyl)piperidin-4-yl)propanoic acid], for which the pIC50 in experiment [1] was 4.70 to 5.70; in experiment [2] it was over 7.00; in experiment [3] it was under 6.00; in experiment [4], under 4.70.

On to `Cc1ccnc(NCC2CCN(c3ccc(CC(NC(=O)C4(C)CCCCC4)C(=O)O)cc3)CC2)c1` (centres unmarked) [Compound 75, 2-(1-methylcyclohexanecarboxamido)-3-(4-(4-((4-methylpyridin-2-ylamino)methyl)piperidin-1-yl)phenyl)propanoic acid], for which the pIC50 in experiment [1] was over 5.70; in experiment [2] it was over 7.00; in experiment [3], under 6.00.

As to `Cc1ccnc(NCC2CC(=O)N(c3ccc(CC(NC(=O)c4c(C)cc(C)cc4C)C(=O)O)cc3)C2)c1` (centres unmarked) [Compound 114, 3-(4-(4-((4-methylpyridin-2-ylamino)methyl)-2-oxopyrrolidin-1-yl)phenyl)-2-(2,4,6-trimethylbenzamido)propanoic acid], the negative logarithm of the IC50 (pIC50) in experiment [1] is over 5.70; in experiment [2], over 7.00; in experiment [4] it was over 5.00.

Consider `CCc1cc(F)cc(C)c1C(=O)NC(Cc1ccc(N2CCC(CNc3ccccn3)CC2)cc1)C(=O)O` (centres unmarked) [Compound 120, 2-(2-ethyl-4-fluoro-6-methylbenzamido)-3-(4-(4-((pyridin-2-ylamino)methyl)piperidin-1-yl)phenyl)propanoic acid], for which the pIC50 in experiment [1] was over 5.70; in experiment [2], over 7.00; in experiment [3], under 6.00; in experiment [4], over 5.00.

For the compound `COc1ccnc(NCC2CCN(c3ccc(CC(NC(=O)c4c(C)cc(C)cc4C)C(=O)O)cc3)CC2)c1` (centres unmarked) [Compound 147, 3-(4-(4-((4-methoxypyridin-2-ylamino)methyl)piperidin-1-yl)phenyl)-2-(2,4,6-trimethylbenzamido)propanoic acid], the pIC50 in experiment [1] is over 5.70; in experiment [2] it was over 7.00.

In the case of `Cc1ccnc(NCC2CCN(c3ccc(CC(NC(=O)c4ccccc4)C(=O)O)cc3)CC2)c1` (centres unmarked) [Compound 262, 2-benzoylamino-3-(4-{4-[(4-methyl-pyridin-2-ylamino)methyl]piperidin-1-yl}phenyl)propionic acid], the pIC50 is 4.70 to 5.70 in experiment [1] and over 7.00 in experiment [2].

Consider `Cc1ccnc(NCC2CCN(c3ccc(CC(NC(=O)C(c4ccccc4)C(C)C)C(=O)O)cc3)CC2)c1` (centres unmarked) [Compound 266, 2-(3-methyl-2-phenyl-butyrylamino)-3-(4-{4-[(4-methyl-pyridin-2-ylamino)methyl]piperidin-1-yl}phenyl)propionic acid], for which the results for the pIC50 in experiment [1], in experiment [2] and in experiment [3] were over 5.70, over 7.00 and under 6.00, respectively.

For `CCCNC(=O)NCC1CCN(c2ccc(CC(NC(=O)c3c(C)cc(C)cc3C)C(=O)O)cc2)CC1` (centres unmarked) [Compound 269, 3-(4-{4-[(3-propyl-ureido)methyl]piperidin-1-yl}phenyl)-2-(2,4,6-trimethyl-benzoylamino)propionic acid], the pIC50 in experiment [1] is under 4.70; in experiment [2] it was over 7.00; in experiment [3], under 6.00.

For orientation: pIC50 means the negative decadic logarithm of the IC50, by convention in mol/L.
